Measured values published in patent US20110118337A1, “Method of Using Compositions Comprising MIR-192 and/or MIR-215 for the Treatment of Cancer” (Merck Sharp & Dohme Corp., priority 2008, published 2011).
Where “and” joins values, the source holds several entries; their conditions need not be identical. Identical values can stand only once.

What was measured:
[1] = test system: HCT116 DICER^ex5 cells; assay: Gene expression profiling (Agilent 44K microarray) after transfection of miR-192/miR-215 duplex mimetics; assay type: cell-based, human; settings: 10 nM, vs mock-transfected
Procedure: Synthetic duplex mimetics of miR-192 and miR-215 (sequences shown in TABLE 1) or a control target Luciferase siRNA (Luc), shown in TABLE 1, were transfected (10 nM final concentration) into HCT116 DICER^ex5, a human colorectal cancer cell line with hypomorphic DICER function (Cummins, J. M., et al., PNAS 103:3687-3692 (2006)). The transfections were carried out using Lipofectamine RNAiMax (Invitrogen) per the manufacturer's instructions. At 10 and 24 hours post-transfection, total RNA was extracted and gene expression profiling was carried out with the Agilent 44K microarray in comparison to RNA isolated from mock-transfected HCT116DICER^ex5 cells. Microarray analysis was carried out as described in Linsley, P. S., et al., Mol Cell Biol 27:2240-2252 (2007). Gene expression data analysis was done either with the Rosetta Resolver gene expression analysis software (Version 7.1 Rosetta Biosoftware).

[2] = test system: HCT116DICER^ex5 cells; assay: Cell cycle distribution by propidium iodide FACS after miR-192 duplex transfection (untreated, nocodazole or aphidicolin); assay type: cell-based, human; settings: for % Cells with 2N (G1/S) / % Cells with 4N (G2/M): 10 nM duplex, 66 hours after transfection
Procedure: At 48 hours post transfection, cells were left untreated, treated with nocodazole (100 ng/mL, Sigma-Aldrich), or treated with aphidicolin (2 μg/mL, Sigma-Aldrich) for an additional 18 hours before harvesting. The cells were then trypsinized, collected, fixed and stained with a propidium iodide solution. BrdU-labeling was performed according to the manufacturer's instructions (BD-Pharmigen). For phospho-histone H3 analysis, cells were fixed and permeabilized with IPF buffer (100 mM PIPES pH 6.8, 10 mM EDTA, 1 mM MgCl2, 0.2% Triton X-100, 4% formaldehyde) and stained with propidium iodide and anti-phospho-histone H3 antibody conjugated to Alexa-488 (Cell Signaling Technology). The cells were analyzed using a FACSCalibur flow cytometer (Beacton Dickinson) and FlowJo software (Tree Star, Inc.).

[3] = compared with mock or mutant miR-192-transfected cells

## miR-192: Synthetic duplex mimetic of miR-192, guide CUGACCUAUGAAUUGACAGCC (SEQ ID NO:1), passenger SEQ ID NO:7 (sense CUGUCAAUUCAUCGGUCUGAU; listed as RNA, chemistry not given here; listed as Homo sapiens)
[1]; 10 hr
  BCL2 transcript fold change: −1.1 fold change
  BRCA1 transcript fold change: −1.02 fold change
  CDC7 transcript fold change: −1.63 fold change
  CDC14A transcript fold change: −1.02 fold change
  CDC73 transcript fold change: −1.2 fold change
  CRK transcript fold change: −1.42 fold change
  CTCF transcript fold change: −1.59 fold change
  CUL5 transcript fold change: −1.16 fold change
  DBF4B transcript fold change: −1.12 fold change
  DEK transcript fold change: −1.21 fold change
  DLG5 transcript fold change: −1.99 fold change
  DTL transcript fold change: −1.11 fold change
  EMP1 transcript fold change: −1.28 fold change
  ERCC3 transcript fold change: −1.3 fold change
  EXTL2 transcript fold change: −1.2 fold change
  FGF2 transcript fold change: −1.48 fold change
  HOXA10 transcript fold change: −1.7 fold change
  HRH1 transcript fold change: −1.36 fold change
  KIF14 transcript fold change: −1.03 fold change
  KIF23 transcript fold change: −1.01 fold change
  LMNB2 transcript fold change: −1.38 fold change
  MACF1 transcript fold change: −1.3 fold change
  MAD2L transcript fold change: −1.18 fold change
  MCM3 transcript fold change: −1.51 fold change
  MCM6 transcript fold change: −1.01 fold change
  MCM10 transcript fold change: −1.77 fold change
  MIS12 transcript fold change: −1.25 fold change
  MKI67 transcript fold change: −1.08 fold change
  MPHOSPH1 transcript fold change: −1.32 fold change
  MTSS1 transcript fold change: −1.06 fold change
  NBN transcript fold change: −1.49 fold change
  NCAPH transcript fold change: 1.01 fold change
  NEK1 transcript fold change: −1.12 fold change
  NFIB transcript fold change: −1.47 fold change
  NFYA transcript fold change: −1.22 fold change
  NIN transcript fold change: −1.1 fold change
  PAFAH1B1 transcript fold change: −1.83 fold change
  PAPD5 transcript fold change: −1.32 fold change
  PFTK1 transcript fold change: 1.03 fold change
  PIM1 transcript fold change: −1.2 fold change
  PLAU transcript fold change: −1.74 fold change
  PLS3 transcript fold change: −1.44 fold change
  POLQ transcript fold change: −1.03 fold change
  POLS transcript fold change: −1.23 fold change
  PPP1CA transcript fold change: −1.83 fold change
  PRPF38A transcript fold change: −1.11 fold change
  RACGAP1 transcript fold change: −1.34 fold change
  RAD1 transcript fold change: −1.2 fold change
  RAD51 transcript fold change: 1.08 fold change
  RAP1GAP transcript fold change: −1.11 fold change
  RB1 transcript fold change: −1.21 fold change
  SEPT10 transcript fold change: −1.59 fold change
  SERTAD2 transcript fold change: −1.12 fold change
  SH3BP4 transcript fold change: −1.52 fold change
  SMARCB1 transcript fold change: −1.16 fold change
  TDG transcript fold change: −1.47 fold change
  TDP1 transcript fold change: −1.44 fold change
  TOP1 transcript fold change: −1.52 fold change
  TUBGCP3 transcript fold change: −1.26 fold change
  USP1 transcript fold change: −1.13 fold change
  UVRAG transcript fold change: −1.2 fold change
[1]; 24 hr
  BCL2 transcript fold change: −1.46 fold change
  BRCA1 transcript fold change: −1.35 fold change
  CDC7 transcript fold change: −2.05 fold change
  CDC14A transcript fold change: −1.16 fold change
  CDC73 transcript fold change: −1.17 fold change
  CRK transcript fold change: −1.44 fold change
  CTCF transcript fold change: −1.78 fold change
  CUL5 transcript fold change: −1.35 fold change
  DBF4B transcript fold change: −1.33 fold change
  DEK transcript fold change: −1.47 fold change
  DLG5 transcript fold change: −2.22 fold change
  DTL transcript fold change: −1.38 fold change
  EMP1 transcript fold change: −1.66 fold change
  ERCC3 transcript fold change: −1.6 fold change
  EXTL2 transcript fold change: −1.5 fold change
  FGF2 transcript fold change: −1.83 fold change
  HOXA10 transcript fold change: −2.3 fold change
  HRH1 transcript fold change: −1.77 fold change
  KIF14 transcript fold change: −1.42 fold change
  KIF23 transcript fold change: −1.34 fold change
  LMNB2 transcript fold change: −1.82 fold change
  MACF1 transcript fold change: −1.64 fold change
  MAD2L transcript fold change: −1.53 fold change
  MCM3 transcript fold change: −1.91 fold change
  MCM6 transcript fold change: −1.33 fold change
  MCM10 transcript fold change: −2.37 fold change
  MIS12 transcript fold change: −1.73 fold change
  MKI67 transcript fold change: −1.4 fold change
  MPHOSPH1 transcript fold change: −1.87 fold change
  MTSS1 transcript fold change: −1.47 fold change
  NBN transcript fold change: −1.27 fold change
  NCAPH transcript fold change: −1.32 fold change
  NEK1 transcript fold change: −1.47 fold change
  NFIB transcript fold change: 1.82 fold change
  NFYA transcript fold change: −1.35 fold change
  NIN transcript fold change: 1.38 fold change
  PAFAH1B1 transcript fold change: −2.22 fold change
  PAPD5 transcript fold change: −1.44 fold change
  PFTK1 transcript fold change: −1.33 fold change
  PIM1 transcript fold change: −1.73 fold change
  PLAU transcript fold change: −1.95 fold change
  PLS3 transcript fold change: −1.57 fold change
  POLQ transcript fold change: −1.18 fold change
  POLS transcript fold change: −1.39 fold change
  PPP1CA transcript fold change: −2.18 fold change
  PRPF38A transcript fold change: −1.17 fold change
  RACGAP1 transcript fold change: −1.9 fold change
  RAD1 transcript fold change: −1.37 fold change
  RAD21 transcript fold change: −1.36 fold change
  RAD51 transcript fold change: −1.23 fold change
  RAP1GAP transcript fold change: −1.43 fold change
  RB1 transcript fold change: −1.45 fold change
  SEPT10 transcript fold change: −1.98 fold change
  SERTAD2 transcript fold change: −1.31 fold change
  SH3BP4 transcript fold change: −1.9 fold change
  SMARCB1 transcript fold change: −1.3 fold change
  TDG transcript fold change: −1.52 fold change
  TDP1 transcript fold change: −1.66 fold change
  TOP1 transcript fold change: −1.66 fold change
  TUBGCP3 transcript fold change: −1.52 fold change
  USP1 transcript fold change: −1.35 fold change
  UVRAG transcript fold change: −1.38 fold change
[2]; aphidicolin 2 μg/mL 18 hours
  % Cells with 2N (G1/S): 46.3%
  % Cells with 4N (G2/M): 47.4%
[2]; [3]
  G2/M phase population: increase
  S phase population: significant decrease
[2]; nocodazole 100 ng/mL 18 hours
  % Cells with 2N (G1/S): 36% and 36.3%
  % Cells with 4N (G2/M): 56.5%
[2]; treated with aphidicolin
  accumulation in the G2/M phase: a significant fraction
[2]; untreated
  % Cells with 2N (G1/S): 48.6%
  % Cells with 4N (G2/M): 44.6%
